Measured values: ChEMBL document CHEMBL5726417, “Therapeutic agent for pain” (2017)

Biological target: 11-beta-hydroxysteroid dehydrogenase 1 (Rattus norvegicus, UniProt P16232)
Assay: Inhibition Assay: The procedure for measuring the 11β-HSD1-inhibitory activity is as follows. The enzyme reaction and the measurement were carried out using a 384-well plate. The enzyme was prepared in accordance with Journal of Biological Chemistry, 2001, Vol. 276, p. 21343-21350. The reaction was carried out by adding a test compound at various concentrations to a reaction liquid consisting of a 5 mM phosphate buffer (pH 6.6), 200 nM cortisone, 40 μM reduced nicotinamide adenine dinucleotide phosphate (NADPH), and rat recombinant 11β-HSD1, followed by incubating at room temperature for one hour (10 μl/well). The test compound was prepared by dissolving in dimethyl sulfoxide (DMSO) such that a DMSO concentration reached 1% in the reaction liquid. After the enzyme reaction was completed, the enzyme inhibitory action was measured by detecting cortisol using a homogeneous time-resolved fluorescence (HTRF) method. Each of a d2-labeled cortisol containing 400 μM carbenoxolone and a cryptate-labeled cortisol antibody (CIS Bio International Co., Ltd.) was added at 5 μl/well, followed by incubating at room temperature for 2 hours, and then the fluorescence intensity was measured using a fluorophotometer (trade name: ARVO HTS 1420, Perkin Elmer/Wallac), and the enzyme inhibitory activity was calculated from the fluorescence intensity ratio of two wavelengths (665 nm/620 nm).The measurement results were calculated by averaging the values of 3 wells of the same condition. The ratio when DMSO was added instead of the test compound was taken as 0% and the ratio when 11β-HSD1 was not added was taken as 100%, thereby calculating the 50% inhibition concentration of the test compound as IC50 of the compound inhibitory activity.

Sequence of 11-beta-hydroxysteroid dehydrogenase 1 (P16232 whole entry): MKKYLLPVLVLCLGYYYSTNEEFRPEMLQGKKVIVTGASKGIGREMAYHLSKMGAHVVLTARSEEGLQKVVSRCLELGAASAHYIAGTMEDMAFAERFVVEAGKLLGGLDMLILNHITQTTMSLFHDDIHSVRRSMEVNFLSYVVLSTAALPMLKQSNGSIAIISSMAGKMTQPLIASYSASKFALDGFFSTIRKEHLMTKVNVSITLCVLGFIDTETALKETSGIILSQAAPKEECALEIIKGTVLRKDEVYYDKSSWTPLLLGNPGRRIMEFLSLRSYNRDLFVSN

Row | IC50 | Structure (SMILES)
1 | 70 nM | CCn1c(-c2ccc(C(N)=O)cc2)nnc1C(C)(C)Oc1c(F)cc(Cl)cc1F
2 | 52 nM | Cn1c(-c2ccc(F)cc2Cl)nnc1C(C)(C)Oc1c(F)cc(F)cc1F
3 | 23 nM | CC(C)n1c(-c2ccc(C(N)=O)cc2F)nnc1C(C)(C)Oc1c(F)cc(F)cc1F
4 | 135 nM | Cn1c(-c2ccc(C(N)=O)cc2F)nnc1C(C)(C)Oc1c(F)cc(Cl)cc1F [CLOFUTRIBEN]
